Values after ≈ are worked out from the molar mass of the structure shown. Counter-ions that a name gives are not always drawn.
Assays:
[1] = system: Mouse melanoma cell line (ATCC CRL 6322); assay: Melanin formation inhibition in melanoma cells; assay type: cell-based; conditions: for inhibition at 250 µM: 0.25 mM; for inhibition at 500 µM: 0.5 mM
Experimental: Inhibitory effects on the melanin formation in melanoma cells were tested by the following procedure. Results obtained are shown in Table 5, together with the results obtained with arbutin as a control.
Mouse melanoma cell line (ATCC CRL 6322) was maintained in MEM medium (GIBCO BR, Gaitherburg, Md.) supplemented with 10% heat-inactivated fetal bovine serum described by Maeda (J. Cosmet. Chem., 42, 361 (1991)). More specifically, the cells were cultured on 6-well tissue culture plates (Falcon 3046) with various concentrations of each test compound listed in Table 5 below at 37° C., and at a humidity of 98%, in 5% carbon dioxide atmosphere for 4 days. Cell viability in all tests was determined by Trypan Blue exclusion. The culture media were aspirated, and 1.0 ml of an aqueous 0.25% trypsin solution and an aqueous 0.2% ethylenediaminetetraacetic acid (EDTA) solution were added to each well. Detached cells were placed in an Eppendorf tube, and centrifuged at 1,000 rpm for 5 minutes. The cell pellets thus obtained were mixed with 5% trichloroacetic acid, agitated well, and centrifuged 10,000 rpm to deposit melanin. The melanin pellets were mixed with 1N NaOH for dissolution, and the absorbance at 475 nm was measured, from which melanin formation inhibition (%) was calculated.

[2] = biological target: mushroom tyrosinase; assay: Tyrosinase inhibition (mushroom tyrosinase, L-DOPA, dopachrome absorbance at 475 nm); assay type: biochemical; conditions: pH 6.8, 22° C., L-DOPA substrate; concentration with 40 to 60% inhibition in a minimum of two trials taken as IC50
Experimental: Inhibition tests were carried out using aqueous solvents. Saturated stock solutions were prepared by at least 48 hours before the tests were run, which were diluted appropriately upon use in order to increase the solubilities in the aqueous solvents of the lipophilic test compounds.
Tests were carried out according to conventional procedure as follows. That is, 0.01 to 0.02 ml of a mushroom tyrosinase solution (1,375 U/ml, Sigma Chemical Co.), 0.98 to 0.99 ml of a 0.07M phosphate buffer solution (pH 6.8) and 1 ml of a test solution with or without a test compound listed in Table 2 were mixed, and the resulting mixture was incubated at 22° C. for 8 minutes. Then, 1 ml of a 0.03% aqueous solution of I-DOPA (L-3,4-dihydroxyphenylalanine having a purity of 99%, Sigma Chemical Co.) was added thereto. After incubation at 22° C. for 2 minutes, the amount of dopachrome in the reaction mixture was measured as absorbance (optical density) at 475 nm. The change in absorbance with or without different test samples was monitored every 30 seconds for the following 2.5 minutes using a Beckman DU-64 spectrophotometer (Beckman, Palo Alto, Calif.).
Each test compound was repeatedly tested until the 50% inhibitory concentration (IC50) (μg/ml) was determined.
The percent inhibition was calculated according to the following equation: [formula] where A=Absorbance
^A final=Final absorbance
^A initial=Initial absorbance

[3] = system: tyrosinase; assay: Tyrosinase inhibition (long exposure), melanin formation from L-tyrosine; assay type: biochemical; conditions: test solution 200 μg/ml, pH 6.8, 37° C., L-tyrosine substrate
Experimental: Tyrosinase inhibitory effects of the active compounds of this invention on long exposure were determined using […]. The method of Chen et al. (J. Agric. Food Chem., 39, 8, 1991) was adapted and scaled down for spectrophotometric analysis on a Bio Rad Model 3550 Microplate Reader (Bio-Rad, Richmond, Calif.), which uses 96-well plates. 20 μl of tyrosinase solution containing 0.02 mg/ml of tyrosinase (Sigma Chemical Company) and 76 μl of a test solution of citronellol, geraniol, or farnesol, adjusted to 200 μg/ml with a phosphate buffer solution (pH 6.8) were added to each well. After incubation at 37° C. for 8 minutes, 1 mM L-tyrosine (Sigma Chemical Company) was added as a substrate. Absorbance at 490 nm was measured every 60 seconds for up to 120 minutes to determine how much the amount of melanin produced from tyrosine substrate decreased as a result of the tyrosinase inhibition.

[4] = Mus musculus, 96 h, 4 days, 37° C.

Row | SMILES | IC50 [2] [µg/mL] | also measured
1 | OC[C@H]1O[C@@H](Oc2ccc(O)cc2)[C@H](O)[C@@H](O)[C@@H]1O [Arbutin, reference compound] | 63 (≈ 231 µM) | inhibition at 125 µM ([1]; Mus musculus, 96 h, 0.125 mM, 4 days, 37° C.): 58%; inhibition at 250 µM [1, 4]: 53%; melanin formation inhibition in melanoma cells ([1]; summary of Table 5, aqueous system): exhibited higher inhibitory effects than the active compounds of the present invention
2 | CC(C)=CCCC(C)CC=O (centres unmarked) [Citronellal] | 9.4 (≈ 60.9 µM) | 
3 | CC(C)=CCCC(C)CCO (centres unmarked) [Citronellol] | 6.3 (≈ 40.3 µM) | inhibition at 250 µM [1, 4]: 25%; inhibition at 500 µM [1, 4]: 25%; Inhibition Ratio (%) on Melanin Formation ([3]; 0 minute): 0%; Inhibition Ratio (%) on Melanin Formation ([3]; 30 minute): 39.6%; Inhibition Ratio (%) on Melanin Formation ([3]; 120 minute): 43.8%
4 | CC(C)=CCCC(C)CC#N (centres unmarked) [Citronellyinitrile, citronellylnitrile] | 9.4 (≈ 62.1 µM) | 
5 | CC(=O)OCCC(C)CCC=C(C)C (centres unmarked) [Citronellyl acetate] | 18.8 | 
6 | CC(C)=CCCC(C)CCOC(=O)c1ccccc1 (centres unmarked) [Citronellyl benzoate] | 6.3 (≈ 24.2 µM) | 
7 | CCCC(=O)OCCC(C)CCC=C(C)C (centres unmarked) [Citronellyl butyrate] | 37.5 (≈ 166 µM) | 
8 | CC(C)=CCCC(C)CCOC=O (centres unmarked) [Citronellyl formate] | 6.3 | 
9 | CC(C)=CCCC(C)CCOC(=O)C(C)C (centres unmarked) [Citronellyl isobutyrate] | 6.3 (≈ 27.8 µM) | inhibition at 250 µM [1, 4]: 31%; inhibition at 500 µM [1, 4]: 56%
10 | CCC(=O)OCCC(C)CCC=C(C)C (centres unmarked) [Citronellyl propionate] | 12.5 (≈ 58.9 µM) | 
11 | CCCCCCCCCCO [Decanol] | 12.5 (≈ 79 µM) | 
12 | C=CC(C)CCCC(C)(C)O (centres unmarked) [Dihydromyrcenol] | 12.5 (≈ 80 µM) | 
13 | CC(C)=CCCC(C)=CCCC(C)=CCO [Farnesol] | 12.5 (≈ 56.2 µM) | Inhibition Ratio (%) on Melanin Formation ([3]; 0 minute): 0%; Inhibition Ratio (%) on Melanin Formation ([3]; 30 minute): 23.6%; Inhibition Ratio (%) on Melanin Formation ([3]; 120 minute): 31.9%
14 | CC(C)=CCCC(C)=CCCC(C)=CCOC(=O)c1ccccc1 [Farnesyl benzoate] | 25.0 (≈ 76.6 µM) | 
15 | CC(C)=CCCC(C)=CCCC(C)=CCOC(=O)C(C)C [Farnesyl isobutyrate] | 12.5 (≈ 42.7 µM) | 
16 | CC(C)=CCCC(C)=CCCC(C)=CCOC(=O)Cc1ccccc1 [Farnesyl phenylacetate] | 12.5 (≈ 36.7 µM) | 
17 | CC(C)=CCC/C(C)=C/CO [Geraniol] | 6.3 (≈ 40.8 µM) | inhibition at 250 µM [1, 4]: 30%; inhibition at 500 µM [1, 4]: 18%; Inhibition Ratio (%) on Melanin Formation ([3]; 0 minute): 0%; Inhibition Ratio (%) on Melanin Formation ([3]; 30 minute): 37.3%; Inhibition Ratio (%) on Melanin Formation ([3]; 120 minute): 48.5%
18 | CC(C)=CCC/C(C)=C/COC(=O)C(C)C [Geranyl isobutyrate] | 12.5 (≈ 55.7 µM) | 
19 | C=CC(C)(O)CCC=C(C)CCC=C(C)C (centres unmarked) [Nerolidol] | 12.5 (≈ 56.2 µM) | 
20 | CCCCCCCCO [Octanol] | 12.5 (≈ 96 µM) | 
